Common to all, as to assay type: biochemical
Experiment [1] concerns DB-250 (Amano Pharmaceutical Co., Ltd.), Enzyme B, debranching enzyme from Bacillus sectorramus. As for the experimental part: (§1) To 0.5 ml of a 1% pullulan solution in a 100 mM McIlvaine's buffer solution (pH=5.0) was added 0.5 ml of an enzyme solution, and the system was allowed to react at 50° C. for 30 minutes. The reducing power thus produced was quantitatively determined through a 3,5-dinitrosalicylic acid reaction (the DNS method; cf. Borel et al., Helv. Chim. Acta., 35, 115 (1952)). The activity producing reducing power corresponding to 1 μmol of maltotriose for 1 minute was taken as one unit.

For experiment [2], the system named is Promozyme (Novo Nordisk A/S), Enzyme A, debranching enzyme from Bacillus acidopullulyticus. On the procedure:
as §1

In experiment [3] the test system is debranching enzyme (α-1,6-glucosidase) of the invention from Bacillus sp. APC-9603. As for the experimental part: as §1
Where [4] appears, read: Table 5, conditions not restated.
[5] abbreviates: Table 5, inhibitor 1 mM, 50 mM acetic acid buffer pH 5.0, 40° C., 30 minutes.
Where [6] appears, read: inhibitor at final concentration 1 mM, 50 mM acetic acid buffer pH 5.0, 40° C., 30 minutes, no inhibitor = 100.

The structures appear in SMILES notation. Read-outs that look alike come from different tables or passages of the source.

Consider `O=C(O)CN(CCN(CC(=O)O)CC(=O)O)CC(=O)O` [EDTA], for which the “Influence of Inhibitor (residual activity), Enzyme B” value in experiment [1] is on record as 93%. Moreover, in experiment [2], the “Influence of Inhibitor (residual activity), Enzyme A” value is given as 129%. Further, in experiment [3] (pH 5), the “Influence of Inhibitor (residual activity), Enzyme of Invention” value was 90%; the “Inhibition (in words)” value was “Slightly inhibited”; the “Residual Activity” value is 90%.
As to `CCN1C(=O)C=CC1=O` [N-EMI, N-ethylmaleimide], the “Influence of Inhibitor (residual activity), Enzyme B” value in experiment [1] (setting [4]) is recorded as 66%. The “Influence of Inhibitor (residual activity), Enzyme A” value in experiment [2] (setting [4]) was found to be 69%. Also, the “Influence of Inhibitor (residual activity), Enzyme of Invention” value in experiment [3] (setting [5]) was 104%. For the same compound, the “Residual Activity” value in experiment [3] (setting [6]) worked out at 104%. Also, in experiment [3] (pH 5), the “Inhibition (in words)” value is “Non-inhibited”.
In the case of `O=C(O)CI` [MIA, monoiodoacetic acid], the “Influence of Inhibitor (residual activity), Enzyme B” value in experiment [1] was 67%. Moreover, in experiment [2], the “Influence of Inhibitor (residual activity), Enzyme A” value was 68%. For the same compound, in experiment [3] (pH 5), the “Influence of Inhibitor (residual activity), Enzyme of Invention” value is on record as 105%; the “Inhibition (in words)” value is recorded as “Non-inhibited”; the “Residual Activity” value is on record as 105%.
For `O=C(O)c1cc[c]([Hg][OH])cc1` [p-CMB, p-mercuri-benzoic acid], in experiment [1], the “Inhibition (in words), Enzyme B” value was “inhibited by p-CMB to a large extent”. The “Influence of Inhibitor (residual activity), Enzyme B” value in experiment [1] (setting [4]) stood at 27%. In addition, in experiment [2], the “Inhibition (in words), Enzyme A” value was “inhibited by p-CMB to a large extent”. Besides, the “Influence of Inhibitor (residual activity), Enzyme A” value in experiment [2] (setting [4]) stood at 14%. In addition, the “Influence of Inhibitor (residual activity), Enzyme of Invention” value in experiment [3] (setting [5]) came out at 81%. The “Inhibition (in words)” value in experiment [3] (inhibitor 1 mM, pH 5.0, 40° C., 30 minutes) is on record as “Slightly inhibited”. Further, in experiment [3] (setting [6]), the “Residual Activity” value was 81%.

The record behind these values is patent US5387516A, “Heat stable debranching enzyme from a Bacillus microorganism” (priority 1992, dated 1995).
